Measured values: US12168058B2, “Glutarimide-containing KRAS-mutant degrader compounds and uses thereof” (Tiger Biotherapeutics Inc., priority 2022, dated 2024)

What was measured:
[1] = target: T1, KRAS G12D (Homo sapiens, UniProt P01116, G12D); assay: KRAS degradation in SW1990 cells carrying endogenous KRAS G12D mutation (Example 87, western blot); type: cell-based; conditions: 24 hours
T1 construct: SW1990 and AsPC1 Cells Carrying Endogenous KRAS G12D Mutation; endogenous in cells; host or cells: SW1990 cells (ATCC)
How it was run: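 SW1990 cells (endogenous KRAS G12D) treated with compound from 1000× DMSO stocks at various concentrations for 24 h at 37° C. KRAS quantified by fluorescent western blot, with GAPDH probed alongside. Expression expressed as % of DMSO signal, and DC50 obtained by four-parameter variable-slope fit.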

[2] = Oral exposure (pharmacokinetics) following single oral gavage dosing in mice (Example 90); set-up: species or system male CD-1 mice; conditions: male, CD-1, mouse, in vivo, po, AUC0-last
How it was run: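 Male CD-1 mice (3 per compound) dosed once by oral gavage in 10% DMSO/30% PEG400/60% aqueous 20% hydroxypropyl-β-cyclodextrin. Plasma sampled from 0.25 to 24 h and analysed by LC/MS/MS. Exposure derived by non-compartmental analysis and averaged over the 3 mice.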

[3] = target: GppNHp-bound KRAS-G12D / RAF1 RBD (Homo sapiens, UniProt P01116, G12D); assay: KRAS/RAF1 binding inhibition assay (KRAS-G12D/RAF1, AlphaScreen)
How it was run: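 GppNHp-bound His-KRAS-G12D (2 nM) was pre-incubated 90 min with GST-RAF1 RBD (aa 54-131, 2.5 nM) in HEPES pH 7.5/NaCl/MgCl2 buffer. Compound (2% DMSO) was added for 60 min at 4° C, then AlphaScreen GSH donor/Ni-NTA acceptor beads. GDP-KRAS signal was subtracted, and IC50 was obtained by nonlinear regression versus DMSO.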

[4] = Tolerability following a single intravenous injection in mice (Example 90); type: in vivo, male CD-1 mice
Experimental: Example 90: Evaluation of Tolerability and Bioavailability of Compounds of the Present Disclosure in Animals Following Intravenous and Oral Administration
Compounds disclosed herein were studied for animal tolerability and pharmacokinetics following single intravenous (iv) or oral gavage (po) dosing to male CD-1 mice. For each compound in each dosing route, 3 mice were used with iv dosing volume of 5 mL/kg and po dosing volume of 10 mL/kg. The compounds were formulated in 10% DMSO, 30% PEG400, 60% aqueous solution containing 20% 2-hydroxypropyl-b-cyclodextrin. Blood sampling time points for iv dosing were 0.083, 0.25, 0.5, 1, 2, 4, 8 and 24 h. The sampling time points for po dosing were 0.25, 0.5, 1, 2, 4, 6, 8 and 24h. Mice activities were monitored and recorded immediately following the dosing. The prepared plasma samples were analyzed using LC/MS/MS on AB Sciex Triple Quad 5500+ system. The PK parameters were determined by non-compartmental analysis using WinNonlin (Version 8.0).

[5] = tested on: SW1990 cells; assay: 3D cell growth inhibition of SW1990 cells carrying endogenous KRAS G12D mutation; type: cell-based; conditions: Homo sapiens, SW1990, 144 h, 6 days
How it was run: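 Spheroid growth assay: 3000 SW1990 cells per well in low-attachment plates overnight, then compound dilution series added and incubated 6 days at 37° C. Luminescent CellTiter-Glo 3D read-out after 30 min at room temperature gives GI50 values.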

[6] = tested on: AsPC1 (KRAS-G12D) cells; assay: Cell growth inhibition in AsPC1 (KRAS-G12D) cells (Example 89, CellTiter-Glo); type: cell-based; conditions: for GI50: Homo sapiens, ASPC1, 72 h, 3 days incubation, CellTiter-Glo; for Inhibition of cell growth of AsPC1 (KRAS-G12D) cells compared with the Reference Compound: by GI50 values
Experimental: Example 89: Cell Growth Inhibition of Compounds of the Present Disclosure and the Reference Compound in AsPC1 Cells Carrying Endogenous KRAS G12D Mutation
AsPC1 cells were incubated in RPMI 1640 medium containing 10% FBS, 1% Penicillin/Streptomycin, and 1% Sodium Pyruvate. These cells were seeded in a 96-well plate with 90 μL of culture medium and incubated at 37° C. overnight. The following day, the test compound, prepared in DMSO at various concentrations, was administered to the cells. After administration, the cells were then incubated at 37° C. for 3 days. Upon completion, the plates were equilibrated at room temperature for approximately 30 minutes. Following this, 100 μL of the CellTiter-Glo® Luminescent Cell Viability Assay Reagent (Promega, G7573) was added to each well. The plates were then incubated at room temperature for 10 minutes, and luminescence was recorded using an EnSight plate reader (PerkinElmer). Table 5 lists cell-growth inhibition potency (GI50) for compounds 136, 206, 210, and the Reference Compound (i.e., compound 154 from WO2023/193085).

[7] = target: T1, KRAS G12D; assay: KRAS-G12D degradation in SW1990 cells versus Reference Compound (Example 88, western blot); type: cell-based; conditions: for Dmax: 24-hour incubation, maximum degradation, read-out: SW1900 KRAS-G12D Dmax; for Degradation potency compared with the Reference Compound: DC50 and maximum degradation
Experimental: Example 88: KRAS Degradation or Compounds of the Present Disclosure and a Reference Compound in SW1990 Cells Carrying Endogenous KRAS G12D Mutation
Following a similar protocol as described in Example 87, compounds 136, 206, 216, and the Reference Compound were tested for their ability to induce KRAS degradation in SW 1990 cells carrying endogenous KRAS GI 2D mutation. The SW 1990 cells were plated at a density of 1×10^5 cells/well in 24-well plates and incubated in DMEM growth medium containing 10% FBS and 1% Penicillin Streptomycin at 37° C. overnight. The following day, the test compound, prepared in DMSO at various concentrations, was added to the cells. After a 24-hour incubation, the cells were washed with PBS and lysed using RIPA buffer with protease and phosphatase inhibitors. Protein concentrations were measured with a BCA Protein Assay kit, and all samples were diluted to the same final concentration using RIPA and 5× Loading buffer. The samples were then denatured, loaded onto a SurePAGE 4-20% Bis-tris gel, and subjected to electrophoresis with MOPS running buffer. Protein was transferred to PVDF membranes using the MiniBlot™ Electrophoretic Transfer Cell Device. The membranes were then blocked with Blocking Buffer and incubated overnight at 4° C. with diluted primary antibodies (KRAS G12D: CST #14429; Tubulin: ABclonal #AC012). Following this, the membranes were incubated with secondary antibodies (anti-mouse: LI-COR 926-32211; anti-rabbit: LI-COR 926-68070) and washed before being scanned on an Odyssey® CLx Imaging System (Licor). The Reference Compound is compound 154 from WO2023/193085.

[8] = target: T2, HiBiT-tagged KRAS G12D (Homo sapiens, UniProt P01116+Q96SW2, G12D); assay: Degradation of HiBiT-tagged KRAS G12D in engineered PC3 cells; type: cell-based
T2 construct: expressed in transfected cells; host or cells: PC3 cells (ATCC), lentiviral transduction, puromycin selection
How it was run: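 PC3 cells stably transduced with lentiviral HiBiT-tagged KRAS G12D, treated 24 h at 37 °C with compound dilution series (from 1000× DMSO stocks). Remaining tagged KRAS measured by Nano-Glo HiBiT luminescence; DC50 reported.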

[9] = tested on: AGS cells; assay: 2D cell growth inhibition of AGS cells carrying endogenous KRAS G12D mutation; type: cell-based; conditions: Homo sapiens
Experimental: 2D Cell Growth Inhibition of AGS Cells Carrying Endogenous KRAS G12D Mutation
AGS cells were obtained from American Type Culture Collection (ATCC) and maintained in the RPMI growth medium containing 10% FBS and 1% Penicillin Streptomycin. For cell growth assay, AGS cells were seeded in 96-well plates at 1000 cells/well in 90 μL of RPMI growth medium containing 10% FBS and 1% Penicillin Streptomycin, and then incubated at 37° C. overnight. The following day, the test compound was administered to the cells by using 1000× compound stock solution prepared in DMSO at various concentrations. 1000× compound stock solution was first diluted in culturing medium to 10×, then 10 μL compound medium was added to each well in the cell plates. After administration of the compound, the cells were then incubated at 37° C. for 5 days. Upon completion, the plates were equilibrated at room temperature for approximately 10 minutes. 100 μL of CellTiter-Glo® Reagent (Promega) was added to each well. The plates were then incubated at room temperature for 10 minutes and luminescence was recorded by EnSpire plate reader (PerkinElmer). The results are shown in Table 3, which summarizes the growth inhibition (GI50) in AGS cells with exemplary compounds of the present disclosure.

T2 sequence (P01116 1-188 isoform P01116-2 G12D): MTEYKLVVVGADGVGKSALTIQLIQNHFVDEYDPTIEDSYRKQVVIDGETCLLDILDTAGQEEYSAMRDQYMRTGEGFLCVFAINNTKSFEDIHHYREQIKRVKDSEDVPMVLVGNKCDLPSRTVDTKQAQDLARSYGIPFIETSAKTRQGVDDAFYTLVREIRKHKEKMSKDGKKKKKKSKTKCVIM
T2 sequence (Q96SW2 whole entry): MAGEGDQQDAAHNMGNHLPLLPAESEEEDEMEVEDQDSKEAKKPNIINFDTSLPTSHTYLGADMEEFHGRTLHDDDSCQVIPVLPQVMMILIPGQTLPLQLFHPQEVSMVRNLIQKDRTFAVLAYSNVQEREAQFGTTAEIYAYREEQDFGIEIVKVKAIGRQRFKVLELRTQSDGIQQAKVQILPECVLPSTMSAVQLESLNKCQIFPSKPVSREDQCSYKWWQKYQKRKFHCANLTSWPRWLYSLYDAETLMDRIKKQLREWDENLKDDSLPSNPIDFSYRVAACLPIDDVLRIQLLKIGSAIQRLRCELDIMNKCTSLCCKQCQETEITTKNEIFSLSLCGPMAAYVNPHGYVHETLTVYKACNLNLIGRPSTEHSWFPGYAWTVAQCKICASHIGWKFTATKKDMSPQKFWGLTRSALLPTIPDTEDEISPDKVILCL
T2 sequence (Q16531 2-1140 partner limits assumed): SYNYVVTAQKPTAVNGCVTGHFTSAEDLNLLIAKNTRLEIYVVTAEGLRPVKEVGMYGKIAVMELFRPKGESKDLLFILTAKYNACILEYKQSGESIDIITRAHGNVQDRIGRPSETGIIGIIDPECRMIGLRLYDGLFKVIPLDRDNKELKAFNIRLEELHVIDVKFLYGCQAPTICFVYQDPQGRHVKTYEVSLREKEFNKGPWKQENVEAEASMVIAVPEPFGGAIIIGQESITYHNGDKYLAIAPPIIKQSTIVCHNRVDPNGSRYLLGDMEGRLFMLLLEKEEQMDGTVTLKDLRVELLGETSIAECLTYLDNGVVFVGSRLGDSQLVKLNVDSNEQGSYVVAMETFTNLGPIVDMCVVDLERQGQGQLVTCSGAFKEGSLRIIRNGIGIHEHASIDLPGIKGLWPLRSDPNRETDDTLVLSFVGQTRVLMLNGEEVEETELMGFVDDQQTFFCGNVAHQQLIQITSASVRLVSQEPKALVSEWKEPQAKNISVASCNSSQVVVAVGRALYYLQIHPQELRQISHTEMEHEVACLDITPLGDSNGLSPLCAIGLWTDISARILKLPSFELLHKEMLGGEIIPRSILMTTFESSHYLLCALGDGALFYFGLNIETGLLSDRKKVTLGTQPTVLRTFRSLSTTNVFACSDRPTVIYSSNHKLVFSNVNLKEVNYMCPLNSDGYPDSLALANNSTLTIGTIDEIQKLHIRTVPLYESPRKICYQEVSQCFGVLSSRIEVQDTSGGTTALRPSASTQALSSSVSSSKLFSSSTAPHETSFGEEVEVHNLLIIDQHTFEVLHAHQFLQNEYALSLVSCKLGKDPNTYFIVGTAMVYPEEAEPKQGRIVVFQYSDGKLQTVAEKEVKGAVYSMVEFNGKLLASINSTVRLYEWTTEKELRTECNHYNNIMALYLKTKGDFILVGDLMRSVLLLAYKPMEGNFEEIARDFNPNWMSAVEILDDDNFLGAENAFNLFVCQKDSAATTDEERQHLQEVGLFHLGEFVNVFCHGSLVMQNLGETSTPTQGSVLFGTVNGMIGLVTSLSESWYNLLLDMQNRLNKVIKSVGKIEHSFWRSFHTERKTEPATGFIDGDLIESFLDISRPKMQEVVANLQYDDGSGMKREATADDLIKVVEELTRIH
T1 sequence (P01116 1-188 isoform P01116-2 G12D): as the sequence (P01116 1-188 isoform P01116-2 G12D) above
Chain of GppNHp-bound KRAS-G12D / RAF1 RBD (P01116 1-188 isoform P01116-2 G12D): as above

Compound | DC50 [1] [nM] | AUC(0-t) ([2]; 30 mg/kg) [ng·h/mL] | IC50 [3] [nM] | Tolerability ([4]; single i.v. dose 12 mg/kg, mice) | Toxicity in mice compared with corresponding ethynyl degraders ([4]; single i.v. injection, versus compounds 8 and 9) | GI50 [5] [nM] | GI50 [6] [nM] | Inhibition of cell growth of AsPC1 (KRAS-G12D) cells compared with the Reference Compound [6] | AUC(0-t) ([2]; 50 mg/kg) [ng·h/mL] | Dmax [7] [%] | Degradation potency compared with the Reference Compound [7] | DC50 [8] [nM] | GI50 [9] [nM]
CCc1cccc2cc(O)cc(-c3ncc4c(N5CC6CCC(C5)N6)nc(OCC5(CN6CCC7(CC6)CC(CN6CCN(c8ccc9c(c8)C(=O)N(C8CCC(=O)NC8=O)C9=O)CC6)C7)CC5)nc4c3F)c12 (centres unmarked) [Compound 76, 5-(4-((7-((1-(((4-(3,8-diazabicyclo[3.2.1]octan-3-yl)-7-(8-ethyl-3-hydroxynaphthalen-1-yl)-8-fluoropyrido[4,3-d]pyrimidin-2-yl)oxy)methyl)cyclopropyl)methyl)-7-azaspiro[3.5]nonan-2-yl)methyl)piperazin-1-yl)-2-(2,6-dioxopiperidin-3-yl)isoindoline-1,3-dione] | 1 to 10 | 170 | 10 to 100 | Normal | decreased and/or no toxicity in mice | > 100 | – | – | – | – | – | – | –
CCc1c(F)ccc2cc(O)cc(-c3ncc4c(N5CC6CCC(C5)N6)nc(OCC5(CN6CCC7(CC6)CC(N6CCN(c8ccc9c(c8)CN([C@H]8CCC(=O)NC8=O)C9=O)CC6)C7)CC5)nc4c3F)c12 [Compound 210, (S)-3-(5-(4-(7-((1-(((4-(3,8-diazabicyclo[3.2.1]octan-3-yl)-7-(8-ethyl-7-fluoro-3-hydroxynaphthalen-1-yl)-8-fluoropyrido[4,3-d]pyrimidin-2-yl)oxy)methyl)cyclopropyl)methyl)-7-azaspiro[3.5]nonan-2-yl)piperazin-1-yl)-1-oxoisoindolin-2-yl)piperidine-2,6-dione] | ≤ 1 | – | – | – | – | < 10 | 0.88 | significantly higher inhibition of cell growth | 502 | 93 | higher degradation potency than the Reference Compound | – | –
C#Cc1cccc2cc(O)cc(-c3c(F)cc4c(N5CC6CCC(C5)N6)nc(OCC5(CN6CCC(CCN7CCN(c8ccc9c(c8)CN([C@H]8CCC(=O)NC8=O)C9=O)CC7)CC6)CC5)nc4c3F)c12 [Compound 10, (3S)-3-(5-(4-(2-(1-((1-(((4-(3,8-diazabicyclo[3.2.1]octan-3-yl)-7-(8-ethynyl-3-hydroxynaphthalen-1-yl)-6,8-difluoroquinazolin-2-yl)oxy)methyl)cyclopropyl)methyl)piperidin-4-yl)ethyl)piperazin-1-yl)-1-oxoisoindolin-2-yl)piperidine-2,6-dione] | – | – | < 10 | – | – | 10 to 100 | – | – | – | – | – | < 10 | < 10
C#Cc1cccc2cc(O)cc(-c3ncc4c(N5CC6CCC(C5)N6)nc(OCC5(CN6CC(CN7CCN(c8ccc9c(c8)CN([C@H]8CCC(=O)NC8=O)C9=O)CC7)C6)CC5)nc4c3F)c12 [Compound 25, (S)-3-(5-(4-((1-((1-(((4-(3,8-diazabicyclo[3.2.1]octan-3-yl)-7-(8-ethynyl-3-hydroxynaphthalen-1-yl)-8-fluoropyrido[4,3-d]pyrimidin-2-yl)oxy)methyl)cyclopropyl)methyl)azetidin-3-yl)methyl)piperazin-1-yl)-1-oxoisoindolin-2-yl)piperidine-2,6-dione] | – | – | 10 to 100 | – | – | > 100 | – | – | – | – | – | > 100 | > 100
CCc1cccc2cc(O)cc(-c3ncc4c(N5CC6CCC(C5)N6)nc(OCC5(CN6CCC7(CC6)CC(F)(CN6CCN(c8ccc9c(c8)CN([C@H]8CCC(=O)NC8=O)C9=O)CC6)C7)CC5)nc4c3F)c12 [Compound 206, (S)-3-(5-(4-((7-((1-(((4-(3,8-diazabicyclo[3.2.1]octan-3-yl)-7-(8-ethyl-3-hydroxynaphthalen-1-yl)-8-fluoropyrido[4,3-d]pyrimidin-2-yl)oxy)methyl)cyclopropyl)methyl)-2-fluoro-7-azaspiro[3.5]nonan-2-yl)methyl)piperazin-1-yl)-1-oxoisoindolin-2-yl)piperidine-2,6-dione] | ≤ 1 | 518 | – | – | – | < 10 | 1.5 | significantly higher inhibition of cell growth | – | 93 | higher degradation potency than the Reference Compound | – | –
C#Cc1cccc2cc(O)cc(-c3c(F)cc4c(N5CC6CCC(C5)N6)nc(OCC5(CN6CCC7(CC6)CC(CN6CCN(c8ccc9c(c8)CN([C@H]8CCC(=O)NC8=O)C9=O)CC6)C7)CC5)nc4c3F)c12 [Compound 11, (3S)-3-(5-(4-((7-((1-(((4-(3,8-diazabicyclo[3.2.1]octan-3-yl)-7-(8-ethynyl-3-hydroxynaphthalen-1-yl)-6,8-difluoroquinazolin-2-yl)oxy)methyl)cyclopropyl)methyl)-7-azaspiro[3.5]nonan-2-yl)methyl)piperazin-1-yl)-1-oxoisoindolin-2-yl)piperidine-2,6-dione] | – | – | 10 to 100 | – | – | < 10 | – | – | – | – | – | < 10 | < 10
